From patent US20240150360A1 (THE REGENTS OF THE UNIVERSITY OF MICHIGAN, priority 2021, published 2024)

Assays:
22Rv1 cells = assay: Cell growth inhibition assay (CellTiter-Glo) in 22Rv1; type: cell-based, human; conditions: Homo sapiens, 22Rv1, 96 h, 22Rv1 cells, 96 h incubation; read-out: Cell Growth Inhibition (IC50) 22Rv1
Outline: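 22Rv1 prostate cancer cells (passages 3-8, DMEM with 10% FBS) were seeded at 4000 cells/well with compound, 3-fold dilutions from 10 μM final. After 96 h at 37° C and 5% CO2, growth was read by CellTiter-Glo 2.0 luminescence.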

CBP = biological target: T1, CBP (Homo sapiens, UniProt Q92793); assay: CBP degradation in 22Rv1 cells (5 h); type: cell-based; conditions: 22Rv1 cells, 5 h; for Dmax: 22Rv1, 5 h, read-out: CBP Degradation (22Rv1, 5 h) DCmax
T1 construct: endogenous in cells; host or cells: 22Rv1 (ATCC CRL-2505) human prostate cancer cells
Source text: (§1) Biological Assays. […] Cells with 3-8 passages after purchase were used in experiments.

P300 = biological target: T2, P300 (Homo sapiens, UniProt Q09472); assay: P300 degradation in 22Rv1 cells (5 h); type: cell-based; conditions: 22Rv1 cells, 5 h; for Dmax: read-out: P300 Degradation (22Rv1, 5 h) DCmax
T2 construct: endogenous in cells; host or cells: 22Rv1 (ATCC CRL-2505) human prostate cancer cells
Source text: as §1

HL60 = assay: Cell growth inhibition in HL60; type: cell-based; conditions: Homo sapiens, HL-60, HL60 cells; read-out: Cell Growth Inhibition (IC50) HL60

T1 sequence (Q92793 whole entry): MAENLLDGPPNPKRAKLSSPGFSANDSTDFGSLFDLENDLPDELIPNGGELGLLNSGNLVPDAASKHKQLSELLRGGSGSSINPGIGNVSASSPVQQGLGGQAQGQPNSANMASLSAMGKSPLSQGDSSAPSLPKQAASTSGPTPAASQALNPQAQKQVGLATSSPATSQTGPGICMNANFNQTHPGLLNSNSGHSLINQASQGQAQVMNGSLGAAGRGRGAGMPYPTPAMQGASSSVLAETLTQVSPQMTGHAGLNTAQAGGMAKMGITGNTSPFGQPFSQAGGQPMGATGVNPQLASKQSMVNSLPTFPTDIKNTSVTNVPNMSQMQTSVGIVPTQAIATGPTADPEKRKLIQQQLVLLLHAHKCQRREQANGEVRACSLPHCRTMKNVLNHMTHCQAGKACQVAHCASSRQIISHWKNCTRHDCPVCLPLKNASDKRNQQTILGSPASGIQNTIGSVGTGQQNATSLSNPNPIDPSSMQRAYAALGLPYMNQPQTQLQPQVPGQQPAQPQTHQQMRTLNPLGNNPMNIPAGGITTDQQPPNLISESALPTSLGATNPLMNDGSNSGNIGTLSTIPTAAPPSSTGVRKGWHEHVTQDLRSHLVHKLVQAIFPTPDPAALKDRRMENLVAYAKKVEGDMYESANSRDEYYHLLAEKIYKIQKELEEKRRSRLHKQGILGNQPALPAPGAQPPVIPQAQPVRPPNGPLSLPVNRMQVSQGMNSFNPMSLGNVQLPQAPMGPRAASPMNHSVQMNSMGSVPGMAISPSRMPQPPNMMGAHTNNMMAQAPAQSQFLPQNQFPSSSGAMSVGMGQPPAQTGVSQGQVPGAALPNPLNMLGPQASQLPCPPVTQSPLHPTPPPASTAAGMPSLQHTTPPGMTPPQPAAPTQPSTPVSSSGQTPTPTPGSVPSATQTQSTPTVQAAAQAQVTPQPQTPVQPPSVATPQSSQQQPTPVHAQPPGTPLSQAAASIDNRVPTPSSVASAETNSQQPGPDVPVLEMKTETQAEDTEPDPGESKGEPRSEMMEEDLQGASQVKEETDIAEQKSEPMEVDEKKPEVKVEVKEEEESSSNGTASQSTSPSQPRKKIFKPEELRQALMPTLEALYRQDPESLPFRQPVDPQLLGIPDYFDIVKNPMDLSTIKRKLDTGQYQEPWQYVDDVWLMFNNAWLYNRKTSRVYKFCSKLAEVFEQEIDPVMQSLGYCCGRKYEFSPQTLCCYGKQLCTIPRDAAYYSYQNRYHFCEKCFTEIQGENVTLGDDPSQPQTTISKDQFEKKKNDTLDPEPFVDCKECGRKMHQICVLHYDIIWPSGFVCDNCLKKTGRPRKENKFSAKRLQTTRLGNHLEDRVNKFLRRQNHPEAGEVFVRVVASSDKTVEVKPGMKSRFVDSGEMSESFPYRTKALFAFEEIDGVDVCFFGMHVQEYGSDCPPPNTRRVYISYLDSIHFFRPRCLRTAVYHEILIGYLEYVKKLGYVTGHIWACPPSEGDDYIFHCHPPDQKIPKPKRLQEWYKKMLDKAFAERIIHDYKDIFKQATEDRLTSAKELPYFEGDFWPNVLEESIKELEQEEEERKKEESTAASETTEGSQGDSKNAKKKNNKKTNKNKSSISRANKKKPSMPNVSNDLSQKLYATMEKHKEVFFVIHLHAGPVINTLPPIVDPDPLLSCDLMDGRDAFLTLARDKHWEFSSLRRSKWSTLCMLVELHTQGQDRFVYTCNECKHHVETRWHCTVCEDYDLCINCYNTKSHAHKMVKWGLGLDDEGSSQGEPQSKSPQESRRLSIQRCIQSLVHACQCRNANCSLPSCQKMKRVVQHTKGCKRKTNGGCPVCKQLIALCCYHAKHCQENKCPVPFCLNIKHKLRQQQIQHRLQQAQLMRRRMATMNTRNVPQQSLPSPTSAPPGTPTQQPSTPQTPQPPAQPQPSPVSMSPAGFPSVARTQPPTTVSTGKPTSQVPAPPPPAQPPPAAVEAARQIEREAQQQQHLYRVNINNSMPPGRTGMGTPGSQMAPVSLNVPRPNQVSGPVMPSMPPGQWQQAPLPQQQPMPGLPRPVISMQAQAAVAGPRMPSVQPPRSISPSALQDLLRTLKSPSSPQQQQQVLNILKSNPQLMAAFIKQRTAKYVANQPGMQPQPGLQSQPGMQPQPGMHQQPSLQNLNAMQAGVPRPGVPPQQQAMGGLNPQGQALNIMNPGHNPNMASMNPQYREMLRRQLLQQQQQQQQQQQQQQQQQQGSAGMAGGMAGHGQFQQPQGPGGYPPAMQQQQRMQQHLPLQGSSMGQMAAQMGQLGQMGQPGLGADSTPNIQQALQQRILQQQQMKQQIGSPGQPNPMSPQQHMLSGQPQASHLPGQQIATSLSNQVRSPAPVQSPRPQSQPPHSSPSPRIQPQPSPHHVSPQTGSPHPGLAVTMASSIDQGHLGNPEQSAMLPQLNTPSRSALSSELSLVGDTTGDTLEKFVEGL
T2 sequence (Q09472 whole entry): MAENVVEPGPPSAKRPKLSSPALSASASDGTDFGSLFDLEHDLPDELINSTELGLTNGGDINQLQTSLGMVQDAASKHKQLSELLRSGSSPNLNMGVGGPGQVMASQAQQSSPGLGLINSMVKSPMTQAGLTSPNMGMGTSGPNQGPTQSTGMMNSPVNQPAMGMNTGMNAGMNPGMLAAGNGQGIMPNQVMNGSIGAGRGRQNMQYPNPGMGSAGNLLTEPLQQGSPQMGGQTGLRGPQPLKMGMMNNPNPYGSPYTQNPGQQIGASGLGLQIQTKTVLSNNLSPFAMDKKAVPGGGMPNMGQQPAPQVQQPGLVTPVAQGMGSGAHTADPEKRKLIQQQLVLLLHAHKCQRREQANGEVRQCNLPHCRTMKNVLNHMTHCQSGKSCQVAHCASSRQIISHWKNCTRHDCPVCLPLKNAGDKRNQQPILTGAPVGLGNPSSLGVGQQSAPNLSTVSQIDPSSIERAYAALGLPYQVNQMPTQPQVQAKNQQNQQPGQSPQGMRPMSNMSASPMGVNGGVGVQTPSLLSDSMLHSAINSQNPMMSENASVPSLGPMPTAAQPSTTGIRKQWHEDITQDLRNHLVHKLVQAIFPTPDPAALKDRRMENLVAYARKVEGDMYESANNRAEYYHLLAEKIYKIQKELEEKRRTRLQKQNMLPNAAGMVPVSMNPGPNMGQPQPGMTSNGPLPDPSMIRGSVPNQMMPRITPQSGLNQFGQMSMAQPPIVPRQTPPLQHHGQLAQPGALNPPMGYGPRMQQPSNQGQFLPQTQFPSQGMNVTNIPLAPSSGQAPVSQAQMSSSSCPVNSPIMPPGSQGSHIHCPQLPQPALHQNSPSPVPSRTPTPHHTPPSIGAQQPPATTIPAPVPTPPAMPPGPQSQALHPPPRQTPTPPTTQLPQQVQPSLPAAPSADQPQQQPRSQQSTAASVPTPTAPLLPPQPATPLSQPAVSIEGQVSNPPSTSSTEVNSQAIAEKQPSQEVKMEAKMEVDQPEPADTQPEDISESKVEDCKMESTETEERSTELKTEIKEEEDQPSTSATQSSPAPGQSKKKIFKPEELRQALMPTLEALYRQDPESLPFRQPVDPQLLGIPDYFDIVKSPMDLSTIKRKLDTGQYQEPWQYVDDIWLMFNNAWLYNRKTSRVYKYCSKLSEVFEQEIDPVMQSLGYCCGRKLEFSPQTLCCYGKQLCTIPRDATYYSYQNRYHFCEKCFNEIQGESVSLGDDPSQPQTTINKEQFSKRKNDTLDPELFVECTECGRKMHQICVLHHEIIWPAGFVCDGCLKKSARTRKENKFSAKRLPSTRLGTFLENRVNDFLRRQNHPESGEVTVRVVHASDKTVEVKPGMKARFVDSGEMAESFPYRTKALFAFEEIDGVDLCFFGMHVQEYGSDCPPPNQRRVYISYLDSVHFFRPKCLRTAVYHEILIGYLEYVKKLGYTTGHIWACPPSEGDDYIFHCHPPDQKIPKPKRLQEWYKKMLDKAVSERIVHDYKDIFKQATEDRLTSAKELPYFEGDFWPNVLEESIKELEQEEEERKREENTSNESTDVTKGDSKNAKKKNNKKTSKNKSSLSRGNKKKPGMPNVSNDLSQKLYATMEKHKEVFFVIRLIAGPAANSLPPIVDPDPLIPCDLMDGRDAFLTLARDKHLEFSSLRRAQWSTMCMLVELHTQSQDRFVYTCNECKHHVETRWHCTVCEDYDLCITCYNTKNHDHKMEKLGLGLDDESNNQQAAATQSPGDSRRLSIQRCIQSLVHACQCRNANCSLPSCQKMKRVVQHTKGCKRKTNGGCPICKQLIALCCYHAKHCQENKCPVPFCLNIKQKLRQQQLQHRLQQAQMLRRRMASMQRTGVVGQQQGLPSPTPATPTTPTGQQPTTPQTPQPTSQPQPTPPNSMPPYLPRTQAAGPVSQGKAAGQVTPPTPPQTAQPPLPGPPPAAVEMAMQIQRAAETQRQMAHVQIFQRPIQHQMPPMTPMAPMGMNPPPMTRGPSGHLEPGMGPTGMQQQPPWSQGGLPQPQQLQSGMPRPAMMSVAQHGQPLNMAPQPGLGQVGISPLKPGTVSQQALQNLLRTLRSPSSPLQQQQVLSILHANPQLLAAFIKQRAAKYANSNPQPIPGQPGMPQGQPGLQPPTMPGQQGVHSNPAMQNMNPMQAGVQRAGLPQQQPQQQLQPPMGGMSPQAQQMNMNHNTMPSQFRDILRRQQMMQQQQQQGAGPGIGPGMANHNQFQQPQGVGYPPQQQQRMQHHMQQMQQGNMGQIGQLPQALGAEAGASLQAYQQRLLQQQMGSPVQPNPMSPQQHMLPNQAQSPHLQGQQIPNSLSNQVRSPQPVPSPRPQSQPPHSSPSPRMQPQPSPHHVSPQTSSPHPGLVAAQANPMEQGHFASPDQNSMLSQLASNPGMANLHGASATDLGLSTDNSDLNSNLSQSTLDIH

| Structure (SMILES) | IC50 (22Rv1 cells) | Dmax (CBP) | DC50 (CBP) | DC50 (P300) | Dmax (P300) | IC50 (HL60) |
| --- | --- | --- | --- | --- | --- | --- |
| CC(=O)N1CCc2c(c(N3CCCc4cc(Cl)c(C(F)F)cc43)nn2C2CCN(C(=O)CN3CCc4cc5c(cc4C3)C(=O)N(C3CCC(=O)NC3=O)C5=O)CC2)C1 (stereo not drawn) [CP-018, 6-(2-(4-(5-acetyl-3-(6-chloro-7-(difluoromethyl)-3,4-dihydroquinolin-1(2H)-yl)-4,5,6,7-tetrahydro-1H-pyrazolo[4,3-c]pyridin-1-yl)piperidin-1-yl)-2-oxoethyl)-2-(2,6-dioxopiperidin-3-yl)-5,6,7,8-tetrahydro-1H-pyrrolo[3,4-g]isoquinoline-1,3(2H)-dione] | > 10000 nM | < 50% | < 1000 nM | > 1000 nM | < 50% | > 10000 nM |
| CC(=O)N1Cc2c(N3CCCc4cc(-c5cnn(C)c5)c(C(F)F)cc43)nn(C3CCN(C(=O)CN4Cc5cc6c(cc5C4)C(=O)N(C4CCC(=O)NC4=O)C6=O)CC3)c2C(C)(C)C1 (stereo not drawn) [CP-084, 6-(2-(4-(5-acetyl-3-(7-(difluoromethyl)-6-(1-methyl-1H-pyrazol-4-yl)-3,4-dihydroquinolin-1(2H)-yl)-7,7-dimethyl-4,5,6,7-tetrahydro-1H-pyrazolo[4,3-c]pyridin-1-yl)piperidin-1-yl)-2-oxoethyl)-2-(2,6-dioxopiperidin-3-yl)-6,7-dihydropyrrolo[3,4-f]isoindole-1,3(2H,5H)-dione] | > 10000 nM | < 50% | > 1000 nM | > 1000 nM | < 50% | > 10000 nM |
| Cc1noc(C)c1-c1ccc2c(c1)nc([C@@H]1CCCC(=O)N1c1ccc(F)c(F)c1)n2C1CCN(C(=O)CN2Cc3cc4c(cc3C2)C(=O)N(C2CCC(=O)NC2=O)C4)CC1 (stereo partly drawn) [CP-062, 3-(6-(2-(4-(2-((S)-1-(3,4-difluorophenyl)-6-oxopiperidin-2-yl)-5-(3,5-dimethylisoxazol-4-yl)-1H-benzo[d]imidazol-1-yl)piperidin-1-yl)-2-oxoethyl)-1-oxo-3,5,6,7-tetrahydropyrrolo[3,4-f]isoindol-2(1H)-yl)piperidine-2,6-dione] | > 10000 nM | < 50% | < 1000 nM | < 100 nM | > 50% | > 10000 nM |
| CC(=O)N1CCc2c(c(N3CCCc4cc(C5CC5)c(C(F)F)cc43)nn2C2CCN(C(=O)CN3CCc4cc5c(cc4C3)C(=O)N(C3CCC(=O)NC3=O)C5=O)CC2)C1 (stereo not drawn) [CP-014, 6-(2-(4-(5-acetyl-3-(6-cyclopropyl-7-(difluoromethyl)-3,4-dihydroquinolin-1(2H)-yl)-4,5,6,7-tetrahydro-1H-pyrazolo[4,3-c]pyridin-1-yl)piperidin-1-yl)-2-oxoethyl)-2-(2,6-dioxopiperidin-3-yl)-5,6,7,8-tetrahydro-1H-pyrrolo[3,4-g]isoquinoline-1,3(2H)-dione] | < 1000 nM | > 90% | < 10 nM | < 10 nM | > 70% | < 1000 nM |
| CC(=O)N1CCc2c(c(N3CCCc4cc(CCC(C)C)c(C(F)F)cc43)nn2C2CCN(C(=O)CN3Cc4cc5c(cc4C3)C(=O)N(C3CCC(=O)NC3=O)C5=O)CC2)C1 (stereo not drawn) [CP-026, 6-(2-(4-(5-acetyl-3-(7-(difluoromethyl)-6-isopentyl-3,4-dihydroquinolin-1(2H)-yl)-4,5,6,7-tetrahydro-1H-pyrazolo[4,3-c]pyridin-1-yl)piperidin-1-yl)-2-oxoethyl)-2-(2,6-dioxopiperidin-3-yl)-6,7-dihydropyrrolo[3,4-f]isoindole-1,3(2H,5H)-dione] | < 1000 nM | > 90% | < 10 nM | < 10 nM | > 70% | < 100 nM |
| CC(=O)N1CCc2c(c(N3CCCc4cc(C5CCCCC5)c(C(F)F)cc43)nn2C2CCN(C(=O)CN3Cc4cc5c(cc4C3)C(=O)N(C3CCC(=O)NC3=O)C5=O)CC2)C1 (stereo not drawn) [CP-021, 6-(2-(4-(5-acetyl-3-(6-cyclohexyl-7-(difluoromethyl)-3,4-dihydroquinolin-1(2H)-yl)-4,5,6,7-tetrahydro-1H-pyrazolo[4,3-c]pyridin-1-yl)piperidin-1-yl)-2-oxoethyl)-2-(2,6-dioxopiperidin-3-yl)-6,7-dihydropyrrolo[3,4-f]isoindole-1,3(2H,5H)-dione] | < 1000 nM | > 90% | < 10 nM | < 10 nM | > 70% | < 100 nM |
| CC(=O)N1CCc2c(c(-c3cccc4ccccc34)nn2C2CCN(C(=O)CN3Cc4cc5c(cc4C3)C(=O)N(C3CCC(=O)NC3=O)C5=O)CC2)C1 (stereo not drawn) [CP-075, 6-(2-(4-(5-acetyl-3-(naphthalen-1-yl)-4,5,6,7-tetrahydro-1H-pyrazolo[4,3-c]pyridin-1-yl)piperidin-1-yl)-2-oxoethyl)-2-(2,6-dioxopiperidin-3-yl)-6,7-dihydropyrrolo[3,4-f]isoindole-1,3(2H,5H)-dione] | < 1000 nM | > 90% | < 10 nM | < 10 nM | > 90% | < 1000 nM |
| CC(=O)N1CCc2c(c(N3CCCc4cc5c(cc43)CCCC5)nn2C2CCN(C(=O)CN3Cc4cc5c(cc4C3)C(=O)N(C3CCC(=O)NC3=O)C5=O)CC2)C1 (stereo not drawn) [CP-077, 6-(2-(4-(5-acetyl-3-(3,4,6,7,8,9-hexahydrobenzo[g]quinolin-1(2H)-yl)-4,5,6,7-tetrahydro-1H-pyrazolo[4,3-c]pyridin-1-yl)piperidin-1-yl)-2-oxoethyl)-2-(2,6-dioxopiperidin-3-yl)-6,7-dihydropyrrolo[3,4-f]isoindole-1,3(2H,5H)-dione] | < 1000 nM | > 90% | < 10 nM | < 10 nM | > 90% | < 1000 nM |
| CC(=O)N1CCc2cc3c(cc2C1)CCCN3c1nn(C2CCN(C(=O)CN3Cc4cc5c(cc4C3)C(=O)N(C3CCC(=O)NC3=O)C5=O)CC2)c2c1CN(C(C)=O)CC2 (stereo not drawn) [CP-080, 6-(2-(4-(5-acetyl-3-(7-acetyl-3,4,6,7,8,9-hexahydropyrido[3,4-g]quinolin-1(2H)-yl)-4,5,6,7-tetrahydro-1H-pyrazolo[4,3-c]pyridin-1-yl)piperidin-1-yl)-2-oxoethyl)-2-(2,6-dioxopiperidin-3-yl)-6,7-dihydropyrrolo[3,4-f]isoindole-1,3(2H,5H)-dione] | > 10000 nM | > 70% | < 10 nM | < 10 nM | > 70% | > 10000 nM |
| CC(=O)N1CCc2c(c(N3CCCc4cc(-c5ccccc5)c(C(F)F)cc43)nn2C2CCN(C(=O)CN3Cc4cc5c(cc4C3)C(=O)N(C3CCC(=O)NC3=O)C5=O)CC2)C1 (stereo not drawn) [CP-022, 6-(2-(4-(5-acetyl-3-(7-(difluoromethyl)-6-phenyl-3,4-dihydroquinolin-1(2H)-yl)-4,5,6,7-tetrahydro-1H-pyrazolo[4,3-c]pyridin-1-yl)piperidin-1-yl)-2-oxoethyl)-2-(2,6-dioxopiperidin-3-yl)-6,7-dihydropyrrolo[3,4-f]isoindole-1,3(2H,5H)-dione] | < 100 nM | > 90% | < 10 nM | < 10 nM | > 90% | < 100 nM |
| Cc1noc(C)c1-c1ccc2c(c1)nc([C@@H]1CCCC(=O)N1c1ccc(F)c(F)c1)n2C1CCN(C(=O)CCN2Cc3cc4c(cc3C2)C(=O)N(C2CCC(=O)NC2=O)C4=O)CC1 (stereo partly drawn) [CP-065, 6-(3-(4-(2-((S)-1-(3,4-difluorophenyl)-6-oxopiperidin-2-yl)-5-(3,5-dimethylisoxazol-4-yl)-1H-benzo[d]imidazol-1-yl)piperidin-1-yl)-3-oxopropyl)-2-(2,6-dioxopiperidin-3-yl)-6,7-dihydropyrrolo[3,4-f]isoindole-1,3(2H,5H)-dione] | > 10000 nM | < 50% | > 1000 nM | > 1000 nM | < 50% | > 10000 nM |
| Cn1cc(-c2cc3c(cc2C(F)F)N(c2nn(C4CCN(C(=O)CN5Cc6cc7c(cc6C5)C(=O)N(C5CCC(=O)NC5=O)C7=O)CC4)c4c2CN(C(=O)C2CC2)CC4)CCC3)cn1 (stereo not drawn) [CP-054, 6-(2-(4-(5-(cyclopropanecarbonyl)-3-(7-(difluoromethyl)-6-(1-methyl-1H-pyrazol-4-yl)-3,4-dihydroquinolin-1(2H)-yl)-4,5,6,7-tetrahydro-1H-pyrazolo[4,3-c]pyridin-1-yl)piperidin-1-yl)-2-oxoethyl)-2-(2,6-dioxopiperidin-3-yl)-6,7-dihydropyrrolo[3,4-f]isoindole-1,3(2H,5H)-dione] | < 10000 nM | < 50% | > 1000 nM | > 1000 nM | < 50% | < 10000 nM |
| Cn1cc(-c2cc3c(cc2C(F)F)N(c2nn(C4CCN(C(=O)CN5Cc6cc7c(cc6C5)C(=O)N(C5CCC(=O)NC5=O)C7=O)CC4)c4c2CN(C(=O)C(F)F)CC4)CCC3)cn1 (stereo not drawn) [CP-056, 6-(2-(4-(5-(2,2-difluoroacetyl)-3-(7-(difluoromethyl)-6-(1-methyl-1H-pyrazol-4-yl)-3,4-dihydroquinolin-1(2H)-yl)-4,5,6,7-tetrahydro-1H-pyrazolo[4,3-c]pyridin-1-yl)piperidin-1-yl)-2-oxoethyl)-2-(2,6-dioxopiperidin-3-yl)-6,7-dihydropyrrolo[3,4-f]isoindole-1,3(2H,5H)-dione] | < 1000 nM | > 50% | < 1000 nM | > 1000 nM | < 50% | < 1000 nM |
